Assay results from ChEMBL document CHEMBL5518202, “Discovery of a Potent Nicotinamide Phosphoribosyltransferase Activator for Improving Aging-associated Dysfunctions” (J Med Chem, 2024).
pKd: −log10 of the molar value.

Target: Nicotinamide phosphoribosyltransferase (Homo sapiens, UniProt P43490)
Experiment: Binding affinity to NAMPT (unknown origin) assessed as dissociation constant incubated for 30 mins by microscale thermophoresis analysis

Sequence of Nicotinamide phosphoribosyltransferase (P43490 whole entry): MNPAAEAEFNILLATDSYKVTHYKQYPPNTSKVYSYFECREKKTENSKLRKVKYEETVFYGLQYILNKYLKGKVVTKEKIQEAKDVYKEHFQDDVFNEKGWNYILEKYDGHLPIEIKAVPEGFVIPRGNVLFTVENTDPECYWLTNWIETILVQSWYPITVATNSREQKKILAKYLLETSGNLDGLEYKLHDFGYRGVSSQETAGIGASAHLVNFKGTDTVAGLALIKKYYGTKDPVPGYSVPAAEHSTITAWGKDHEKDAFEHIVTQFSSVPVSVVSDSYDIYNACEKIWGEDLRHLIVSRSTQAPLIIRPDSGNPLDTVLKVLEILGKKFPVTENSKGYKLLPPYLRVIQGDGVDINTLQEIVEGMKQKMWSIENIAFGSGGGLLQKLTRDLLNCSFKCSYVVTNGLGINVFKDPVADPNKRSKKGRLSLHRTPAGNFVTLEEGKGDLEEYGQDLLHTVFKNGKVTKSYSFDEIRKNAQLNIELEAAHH

O=C(NCc1ccncc1)Nc1ccc(S(=O)(=O)N2CC3CCC(C2)O3)cc1
pKd: 5.17
